Data published in ChEMBL document CHEMBL6134868, “Novel Aryl Sulfonium Modification on Vancomycin to Tackle MRSA and VRE In Vitro and In Vivo through Dual Enhanced Cell-Wall and Membrane Inhibition” (J Med Chem, 2025).
≈ marks a conversion by molar mass, not a printed value. Positions of bridges follow the written chain, without caps; N, C: chain ends. Non-standard residues stand in square brackets, D forms with d. Residues, ends and D or L forms follow the SMILES beside them. *: point of attachment. X1 = CC[C@H](C)CCCCC(=O)*; Dab = NCC[C@H](N)C(=O)O

Key:
Type in all cases: functional
Conditions in all cases: time 16-24 hrs
[1] = system: Enterococcus faecium; assay: Antibacterial activity against vancomycin-resistant Enterococcus faecium Efm-HS-vb01 harboring VanB phenotype incubated for 16 to 24 hrs by broth microdilution assay
[2] = system: Staphylococcus aureus; assay: Antibacterial activity against methicillin-resistant Staphylococcus aureus USA300 LAC incubated for 16 to 24 hrs by broth microdilution assay
[3] = system: Enterococcus faecium; assay: Antibacterial activity against vancomycin-resistant Enterococcus faecium Efm-HS-vb02 harboring VanB phenotype incubated for 16 to 24 hrs by broth microdilution assay
[4] = system: Staphylococcus aureus; assay: Antibacterial activity against vancomycin-intermediate Staphylococcus aureus Mu50 incubated for 16 to 24 hrs by broth microdilution assay
[5] = system: Acinetobacter baumannii; assay: Antibacterial activity against carbapenem-resistant Acinetobacter baumannii CRAB-1 clinical isolate incubated for 16 to 24 hrs by broth microdilution assay
[6] = system: Acinetobacter baumannii; assay: Antibacterial activity against Acinetobacter baumannii ATCC19606 incubated for 16 to 24 hrs by broth microdilution assay
[7] = system: Pseudomonas aeruginosa; assay: Antibacterial activity against Pseudomonas aeruginosa PAO1 incubated for 16 to 24 hrs by broth microdilution assay
[8] = system: Enterococcus faecium; assay: Antibacterial activity against vancomycin-resistant Enterococcus faecium Efm-HS-0649 harboring VanA phenotype incubated for 16 to 24 hrs by broth microdilution assay
[9] = system: Klebsiella pneumoniae; assay: Antibacterial activity against Klebsiella pneumoniae KP-1 incubated for 16 to 24 hrs by broth microdilution assay
[10] = system: Escherichia coli; assay: Antibacterial activity against Escherichia coli AB1157 incubated for 16 to 24 hrs by broth microdilution assay
[11] = system: Enterococcus faecium; assay: Antibacterial activity against vancomycin-resistant Enterococcus faecium Efm-HS-08257 harboring VanM phenotype incubated for 16 to 24 hrs by broth microdilution assay

Row | Compound | MIC [1] | MIC [2] | MIC [3] | MIC [4] | MIC [5] | MIC [6] | MIC [7] | MIC [8] | MIC [9] | MIC [10] | MIC [11]
1 | CN[C@H](CC(C)C)C(=O)N[C@H]1C(=O)N[C@@H](CC(N)=O)C(=O)N[C@H]2C(=O)N[C@H]3C(=O)N[C@H](C(=O)N[C@H](C(=O)O)c4cc(O)c(CNCCC[S+](C)CC(O)COc5ccccc5)c(O)c4-c4cc3ccc4O)[C@H](O)c3ccc(c(Cl)c3)Oc3cc2cc(c3O[C@@H]2O[C@H](CO)[C@@H](O)[C@H](O)[C@H]2O[C@H]2C[C@](C)(N)[C@H](O)[C@H](C)O2)Oc2ccc(cc2Cl)[C@H]1O.O=C([O-])C(F)(F)F (stereo not given in full) | 2 µg/mL | 0.5 µg/mL | 4 µg/mL | 4 µg/mL | 128 µg/mL | 128 µg/mL | > 128 µg/mL | 128 µg/mL | > 128 µg/mL | 32 µg/mL | 64 µg/mL
2 | CN[C@H](CC(C)C)C(=O)N[C@H]1C(=O)N[C@@H](CC(N)=O)C(=O)N[C@H]2C(=O)N[C@H]3C(=O)N[C@H](C(=O)N[C@H](C(=O)NCCC[S+](C)CC(O)COc4ccc(-c5ccc(Cl)cc5)cc4)c4cc(O)cc(O)c4-c4cc3ccc4O)[C@H](O)c3ccc(c(Cl)c3)Oc3cc2cc(c3O[C@@H]2O[C@H](CO)[C@@H](O)[C@H](O)[C@H]2O[C@H]2C[C@](C)(N)[C@H](O)[C@H](C)O2)Oc2ccc(cc2Cl)[C@H]1O.O=C([O-])C(F)(F)F (stereo not given in full) | 4 µg/mL | ≤ 0.063 µg/mL | 0.5 µg/mL | 0.25 µg/mL | 64 µg/mL | 16 µg/mL | > 128 µg/mL | 2 µg/mL | > 128 µg/mL | 16 µg/mL | 2 µg/mL
3 | CC(C)CCCCC(=O)N[C@@H](CCN)C(=O)N[C@H](C(=O)N[C@@H](CCN)C(=O)N[C@H]1CCNC(=O)[C@H]([C@@H](C)O)NC(=O)[C@H](CCN)NC(=O)[C@H](CCN)NC(=O)[C@H](CC(C)C)NC(=O)[C@@H](Cc2ccccc2)NC(=O)[C@H](CCN)NC1=O)[C@@H](C)O.CC[C@H](C)CCCCC(=O)N[C@@H](CCN)C(=O)N[C@H](C(=O)N[C@@H](CCN)C(=O)N[C@H]1CCNC(=O)[C@H]([C@@H](C)O)NC(=O)[C@H](CCN)NC(=O)[C@H](CCN)NC(=O)[C@H](CC(C)C)NC(=O)[C@@H](Cc2ccccc2)NC(=O)[C@H](CCN)NC1=O)[C@@H](C)O (X1-[Dab]T[Dab][Dab][Dab][dF]L[Dab][Dab]T; lactam 4-C) |  |  |  |  | 0.125 µg/mL | 0.125 µg/mL | 0.5 µg/mL |  | ≤ 0.063 µg/mL | 0.125 µg/mL | 
4 | CC(=O)NC[C@H]1CN(c2ccc(N3CCOCC3)c(F)c2)C(=O)O1 [LINEZOLID] | 2 µg/mL (≈ 5.93 µM) | 1 µg/mL (≈ 2.96 µM) | 2 µg/mL (≈ 5.93 µM) |  | 128 µg/mL (≈ 379 µM) | 128 µg/mL (≈ 379 µM) | 128 µg/mL (≈ 379 µM) | 1 µg/mL (≈ 2.96 µM) | > 128 µg/mL | 128 µg/mL (≈ 379 µM) | 2 µg/mL (≈ 5.93 µM)
5 | C[C@@H](O)[C@H]1C(=O)N2C(C(=O)O)=C(S[C@@H]3CN[C@H](C(=O)N(C)C)C3)[C@H](C)[C@H]12 [MEROPENEM] |  |  |  |  | > 128 µg/mL | 2 µg/mL (≈ 5.22 µM) |  |  |  |  | 
6 | CCCCCCCCCC(=O)N[C@@H](Cc1c[nH]c2ccccc12)C(=O)N[C@@H](CC(N)=O)C(=O)N[C@@H](CC(=O)O)C(=O)N[C@@H]1C(=O)NCC(=O)N[C@@H](CCCN)C(=O)N[C@@H](CC(=O)O)C(=O)N[C@H](C)C(=O)N[C@@H](CC(=O)O)C(=O)NCC(=O)N[C@H](CO)C(=O)N[C@@H]([C@@H](C)CC(=O)O)C(=O)N[C@@H](CC(=O)c2ccccc2N)C(=O)O[C@@H]1C | 8 µg/mL (≈ 4.94 µM) | 1 µg/mL (≈ 0.617 µM) | 4 µg/mL (≈ 2.47 µM) | 4 µg/mL (≈ 2.47 µM) |  |  |  | 8 µg/mL (≈ 4.94 µM) |  |  | 8 µg/mL (≈ 4.94 µM)
